Source: BindingDB's records for doi:10.1074/jbc.M110.109017 (The University of Kansas, 2010)

Target: Cytochrome P450 2E1 (Homo sapiens, UniProt P05181)
Assay: Binding Assay
Source text: Binding assay using CYP2E1.

Chain of Cytochrome P450 2E1 (P05181 whole entry): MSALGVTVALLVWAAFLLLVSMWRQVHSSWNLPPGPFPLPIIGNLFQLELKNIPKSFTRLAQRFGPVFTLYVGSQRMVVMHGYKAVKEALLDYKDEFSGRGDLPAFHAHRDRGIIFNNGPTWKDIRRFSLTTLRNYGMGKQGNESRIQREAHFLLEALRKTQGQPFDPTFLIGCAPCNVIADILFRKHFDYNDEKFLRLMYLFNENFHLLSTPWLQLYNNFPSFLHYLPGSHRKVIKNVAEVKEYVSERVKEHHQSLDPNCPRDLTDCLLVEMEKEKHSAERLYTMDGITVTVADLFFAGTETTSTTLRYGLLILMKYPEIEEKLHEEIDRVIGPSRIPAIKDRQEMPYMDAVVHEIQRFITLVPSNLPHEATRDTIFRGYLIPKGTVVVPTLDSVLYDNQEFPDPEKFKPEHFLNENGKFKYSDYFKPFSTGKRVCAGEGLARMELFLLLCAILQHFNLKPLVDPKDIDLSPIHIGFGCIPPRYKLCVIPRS

O=C(O)CCCCCCCn1ccnc1
Kd: 21 µM

O=C(O)CCCCCCCCCn1ccnc1 [Omega-imidazolyl decanoic acid]
Kd: 9 µM

O=C(O)CCCCCCCCCCCn1ccnc1 [Omega-imidazolyl dodecanoic acid]
Kd: 1.8 µM
